Results taken from patent US20090117090A1, “INHIBITION OF GLYCOGEN SYNTHASE KINASE 3 BETA IN ARTERIAL REPAIR AND STENT RE-ENDOTHELIALIZATION” (OTTAWA HEART INSTITUTE RESEARCH CORPORATION, priority 2007, published 2009).
Like-named read-outs stand apart in the source and are kept apart here.

Columns and labels:
EPCs [1] = assay: EPC apoptosis by propidium iodide flow cytometry; assay type: cell-based, human; details: 2×GSKI; EPCs of healthy controls and CAD patients
α-integrin subunits 1-5 = assay: Quantitative PCR of α-integrin subunits in EPCs; assay type: cell-based, human
EPCs [2] = assay: In vitro prediction of maximal tolerated dose of GSKI in EPC culture; assay type: cell-based, human; details: multiples of IC50 concentration in EGM-2; 1× to 100× tested
Method: In accordance with another aspect of the present invention, local delivery of inhibitor at the site of arterial injury represents an alternative strategy for enhancing arterial repair and mitigating neointima formation. GSKI coated stents (GCSs) were manufactured for use in a rabbit carotid model of stent neointima formation as previously described (27). Prior to implanting these GCSs, in vitro experiments were performed in order to predict the maximal tolerated dose of GSKI we could deliver in vivo. EPCs were cultured in EGM-2 supplemented with 1×, 2×, 5×, 10×, 20×, 30×, 40×, 50×, and 100× concentrations of the GSKI. […] To manufacture the GCSs, bare metal stents were coated with muco-gel supplemented with DMSO (vehicle for GSKI) or muco-gel containing 20×GSKI as previously described (27). Once coated, stents were allowed to dry in a sterile environment and packaged aseptically prior to delivery. Stents were deployed in New Zealand white rabbit carotid arteries according to a previous protocol and the stent neointima was subjected to quantitative histomophometry 14 days post-stent deployment (22). […] Despite rapid re-endothelialization of GCSs, a neointima formed in both groups but was 50% smaller in area in GCSs vs. control stents. […]

β-catenin = β-catenin nuclear levels by western blot of EPC nuclear extracts; assay type: cell-based, human; details: EPCs cultured in media supplemented with GSKI (2×) vs control media
Method: β-catenin nuclear levels were assayed by western blot of nuclear extracts from both control and treated EPCs. Briefly, nuclei were separated by differential centrifugation and total nuclear protein was extracted. Protein was then run on an acrylamide gel and transferred onto a PVDF membrane overnight. After transfer, the membrane was blocked for one hour in 5% skim milk powder in 0.1% Tween-20 in Tris buffered saline. This was then incubated for 48 hours with primary antibody of a monoclonal anti-phospho-β-catenin (Cell Signaling Technologies) diluted 1:1000 in 5% skim milk powder in TBS-T. After incubation the membrane was then washed 3 times for 5 minutes each with TBS-T. The membrane was then incubated in secondary antibody of goat anti rabbit IgG (H+ L) conjugated with horseradish peroxidase (1:5000 in TBS-T) for 24 hours. The membrane was washed and quantitated using ECL Plus (Amersham Biosciences).

VEGF = VEGF secretion by EPCs (ELISA); assay type: cell-based, human; details: 24 hours in VEGF free media
EPCs [3] = assay: EPC cell survival assay; assay type: cell-based, human; details: both healthy controls and patients with CAD, n=6
Method: Day seven EPCs were used for all experiments unless otherwise indicated. For the cell survival assay, six high power fields were enumerated on day 7 for each individual. Subsequently, cells were washed and the media changed every four days after which cells were again enumerated. Data are expressed as a percentage of initial cells present on day 7. For apoptosis studies cells from patients and healthy controls were cultured for 7 days. Cells were then lifted and recoated at a density of 2×10^6 mature EPCs per well. The cells were then allowed to incubate for an additional four days prior to being lifted with EDTA supplementation of the media and gentle agitation. Cells were pelleted and resuspended in HBSS. Prior to analysis by flow cytometry, 10 μL of propidium iodide was added to the cell suspension. EPCs were identified by uptake of acLDL-alexa488 (Invitrogen) and UEA-1 FITC labeling in separate experiments. Uptake of propidium iodide identified apoptotic cells. A total of ten thousand events was analyzed and the data expressed as a percentage of total EPCs being apoptotic. All experiments were conducted on a Beckman Coulter Cytomics FC 500 cytometer.

EPCs [4] = assay: EPC fibronectin adhesion assay; assay type: cell-based, human
Method: Day 7 EPCs were detached from their fibronectin coated plates by incubation with 0.5 mmol EDTA. Cells were pelleted, resuspended in EGM-2 and enumerated. Subsequently, 100,000 EPCs were plated in 24-well fibronectin coated plates and incubated for 30 minutes. After, the wells were washed three times with HBSS and the adherent cells labeled and six random high power fields enumerated. Blocking experiments were performed using a specific VLA-4 antibody (MAB169832, Chemicon) at a concentration of 10 ug/mL and allowing cells to incubate for 2 hours.

EPCs [5] = assay: EPC culture and enumeration (AcLDL uptake / UEA-1 dual positive cells); assay type: cell-based, human
Excerpt: EPCs were isolated and cultured as previously described (17). Briefly, peripheral blood mononuclear cells (PBMCs) were isolated by ficoll gradient centrifugation from either healthy young volunteers or patients with angiographically verified CAD. Blood was collected by venipuncture and anticoagulated with EDTA. 5×10^6 PBMCs were then washed and resuspended in EGM-2 media (Clonetics) and plated on fibronectin coated plates. Media were supplemented with either LiCl (Sigma), GSKI VIII (Calbiochem; Cat. No. 361549; AR-A014418:N-(4-Methoxybenzyl)-N′-(5-nitro-1,3-thiazol-2-yl)urea), or vehicle (DMSO) at the indicated concentrations.
GSK inhibitor VIII is a GSK-3β isoform specific inhibitor derived from a class of compounds shown to inhibit GSK-3 both in vitro (54) and in vivo (53). After 96 hours of culture, non-adherent cells were removed and the plates washed three times with buffered wash solution. Cells were then incubated for another 72 hours before being labeling, enumeration, or being used in various assays.
For the task of enumeration EPCs were arbitrarily defined as cells dually positive for AcLDL uptake and ulex europeus agglutinin I (UEAI) binding. […] Plates of cells were again washed, and incubated for a DAPI nuclear counterstain before a coverslip was applied to the well and double positive cells were counted in 6 random high power fields (×200 magnification). […]

GSK-3β = GSK-3β (Homo sapiens, UniProt P49841); details: cited from earlier work
Chain of GSK-3β (P49841 whole entry, species assumed): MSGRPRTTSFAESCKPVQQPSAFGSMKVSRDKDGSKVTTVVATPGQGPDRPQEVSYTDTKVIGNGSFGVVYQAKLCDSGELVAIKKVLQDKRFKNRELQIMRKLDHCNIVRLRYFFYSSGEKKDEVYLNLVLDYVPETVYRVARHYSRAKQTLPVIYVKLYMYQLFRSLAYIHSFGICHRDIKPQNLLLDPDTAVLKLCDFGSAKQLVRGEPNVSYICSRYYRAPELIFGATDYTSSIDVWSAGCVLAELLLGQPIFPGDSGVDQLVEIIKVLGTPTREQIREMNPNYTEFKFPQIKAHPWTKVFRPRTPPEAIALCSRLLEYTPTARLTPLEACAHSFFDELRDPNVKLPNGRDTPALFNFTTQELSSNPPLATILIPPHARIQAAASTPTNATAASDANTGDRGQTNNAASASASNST

| Structure (SMILES) | percentage of apoptotic cells (EPCs [1]) | mRNA levels of α-1, -2, -3 and -5 integrin subunits (α-integrin subunits 1-5; GSKI 1× and 2× vs control) | mRNA of α-4 integrin subunit (α-integrin subunits 1-5; both concentrations of the GSKI (1×, 2×)) | dose resulting in increased EPC death and attenuated function (EPCs [2]) | nuclear b-catenin levels (β-catenin) | VEGF secretion by mature EPCs (VEGF) | EPC survival (long term viability) (EPCs [3]) | EPC adherence, healthy controls (EPCs [4]; EPCs from healthy controls, fibronectin, 30 minutes) | increase in EPC adherence, patients cells (EPCs [4]; EPCs from patients with CAD, fibronectin, 30 minutes) | number of adherent cells after 30 minutes (EPCs [4]; VLA4 blocking experiment, without antibody) | EPC yield (EPCs [5]) | doses in which LiCl inhibits GSK-3β (GSK-3β) | EPC yield (EPCs [5]; 7 days culture, EPCs from both healthy controls and CAD patients, GSKI at 104 nm and 208 nm) |
| --- | --- | --- | --- | --- | --- | --- | --- | --- | --- | --- | --- | --- | --- |
| COc1ccc(CNC(=O)Nc2ncc([N+](=O)[O-])s2)cc1 [GSKI, N-(4-Methoxybenzyl)-N′-(5-nitro-1,3-thiazol-2-yl)urea] | reduction | No difference | upregulation | ≥ 30 × | increased levels | increase | significantly improves long term viability | dose dependent increase | ~4 fold | increased | increase | – | – |
| [Cl-].[Li+] [LiCl, lithium chloride] | – | – | – | – | – | – | – | – | – | – | – | 10 to 20 mM | increases |
